In paper PMC6151428, “Discovery of Novel N-Substituted Prolinamido Indazoles as Potent Rho Kinase Inhibitors and Vasorelaxation Agents” (Molecules : A Journal of Synthetic Chemistry and Natural …, 2017):
Read-outs that look alike come from different tables or passages of the source.

Tests used:
[1] = target: T1, ROCK I (Homo sapiens, UniProt Q13464); test: Rho kinase activity assay (Cyclex CY-1160 kit); format: biochemical
T1 construct: purchased Cyclex, Nagoya, Japan CY-1160
Experimental: Briefly, the compounds at 20 μM were pre-incubated in a system wherein ROCK I (0.02 ng/μL) phosphorylates the kinase substrate’s myosin-binding subunit (MBS) pre-absorbed onto the microplate in the presence of Mg^2+ and ATP. Then, the system was washed after incubation at 30 °C for 30 min. 100 μL of horseradish peroxidase-conjugated anti-AF20 antibody was added to the wells and then incubated for 30 min at room temperature. The reaction system was then incubated with the substrate tetra-methylbenzidine (TMB), which can be catalyzed from a colorless solution to a blue solution. The absorbance was measured at a wavelength of 450 nm on a microplate reader. The color reflects the relative level of ROCK I activity. The inhibitory rates of the compounds on ROCK I were obtained from OD 450 nm and the IC50 values were calculated by nonlinear regression.

[2] = system: rat aortic rings; test: Vasorelaxant activity test, high-potassium model; settings: rat aortic rings constricted with high K+ (60 mmol/L); a: mean N = 6; b: single determination; -- = No activity
From the text: (§1) Abnormalities in the Rho/ROCK signaling pathway are associated with various cardiovascular diseases, especially hypertension. The inhibition of the Rho/ROCK pathway can cause the vessels to relax. The norepinephrine (NE)- or potassium chloride (KCl)-induced model of the rat aortic ring can trigger sustained vessel contraction and is usually used to evaluate vasorelaxant activity. DL0805 has shown vasorelaxant activity. Therefore, the nine compounds with significant inhibition against ROCK I were further tested for their vasorelaxant activity in rat aortic rings in both the high-potassium and NE models (Table 3). […] The potent active compound 4b with excellent activity has been further evaluated, and further pharmacokinetic and safety evaluations are in progress.
(§2) Male Sprague-Dawley rats weighing 240–280 g (Vital River Laboratories, Beijing, China) were maintained in a 12-h light/dark cycle at 24 °C in a relative humidity of 60% room, and received food and water ad libitum. The animal care and handling were performed in accordance with the Guide for the Care and Use of Laboratory Animals published by the US National Institutes of Health and the Laboratories Institutional Animal Care and Use Committee of the Chinese Academy of Medical Science and Peking Union Medical College (ethic approval number: 00001012).
(§3) The vasorelaxant activity assay was performed as described previously. Briefly, the descending thoracic aorta was isolated after rats were euthanized by cervical dislocation. Then, the aorta was cut into ring segments (3–4 mm in length). The endothelial layer of the aorta was destroyed by gently rubbing the luminal surface with a moist cotton swab when necessary. Two stainless-steel triangles were inserted into the lumen of each ring. One triangle was fixed, and the other attached to a force transducer. Changes in isometric force were recorded on a BIOPAC polygraph (MP100WSW, Biopac Systems, Inc, Goleta, CA, USA). The rings were mounted in organ baths containing 10 mL Krebs-Henseleit (K-H) buffer with the following composition (mM): NaCl 120, KCl 4.8, MgSO4 1.4, KH2PO4 1.2, glucose 11.0, CaCl2 2.5, NaHCO3 25.0 and EDTA 0.01. The K-H buffer was continuously bubbled with 95% O2/5% CO2 at 37 °C. Rings were allowed to equilibrate for 60 min at a resting tension of 1.2 g with changes of buffer every 20 min.
(§4) After the equilibration period, the aortic rings were constricted with a high K^+ (60 mM) K-H solution to stimulate the tissue and to test its availability. Then, the rings were washed with normal K-H buffer to restore the basic tension of 1.2 g. The aortic rings were then stimulated with a high K^+ (60 mmol/L) K-H buffer ornorepinephrine (1 μM) to evaluate the vasorelaxant effects of the compounds. When the contraction reached the platform, compounds were added to the bath in batches at 5-min intervals to reach the accumulative concentrations of 1, 2, 5, 10, 25 and 50 μM. The tension of vessels was recorded and nonlinear regression was used to calculate the EC50 values.

[3] = system: rat aortic rings; test: Vasorelaxant activity test, NE model; settings: rat aortic rings constricted with norepinephrine (1 μM); a: mean N = 6; b: single determination; -- = No activity
From the text: as §1, §2, §3, §4

[4] = target: T1, ROCK I; design: method as in PMID 22609784; settings: lead discovered by high-throughput screening, previous article; read-out: IC50 against ROCK I; cited from earlier work

T1 sequence (Q13464 whole entry, species assumed): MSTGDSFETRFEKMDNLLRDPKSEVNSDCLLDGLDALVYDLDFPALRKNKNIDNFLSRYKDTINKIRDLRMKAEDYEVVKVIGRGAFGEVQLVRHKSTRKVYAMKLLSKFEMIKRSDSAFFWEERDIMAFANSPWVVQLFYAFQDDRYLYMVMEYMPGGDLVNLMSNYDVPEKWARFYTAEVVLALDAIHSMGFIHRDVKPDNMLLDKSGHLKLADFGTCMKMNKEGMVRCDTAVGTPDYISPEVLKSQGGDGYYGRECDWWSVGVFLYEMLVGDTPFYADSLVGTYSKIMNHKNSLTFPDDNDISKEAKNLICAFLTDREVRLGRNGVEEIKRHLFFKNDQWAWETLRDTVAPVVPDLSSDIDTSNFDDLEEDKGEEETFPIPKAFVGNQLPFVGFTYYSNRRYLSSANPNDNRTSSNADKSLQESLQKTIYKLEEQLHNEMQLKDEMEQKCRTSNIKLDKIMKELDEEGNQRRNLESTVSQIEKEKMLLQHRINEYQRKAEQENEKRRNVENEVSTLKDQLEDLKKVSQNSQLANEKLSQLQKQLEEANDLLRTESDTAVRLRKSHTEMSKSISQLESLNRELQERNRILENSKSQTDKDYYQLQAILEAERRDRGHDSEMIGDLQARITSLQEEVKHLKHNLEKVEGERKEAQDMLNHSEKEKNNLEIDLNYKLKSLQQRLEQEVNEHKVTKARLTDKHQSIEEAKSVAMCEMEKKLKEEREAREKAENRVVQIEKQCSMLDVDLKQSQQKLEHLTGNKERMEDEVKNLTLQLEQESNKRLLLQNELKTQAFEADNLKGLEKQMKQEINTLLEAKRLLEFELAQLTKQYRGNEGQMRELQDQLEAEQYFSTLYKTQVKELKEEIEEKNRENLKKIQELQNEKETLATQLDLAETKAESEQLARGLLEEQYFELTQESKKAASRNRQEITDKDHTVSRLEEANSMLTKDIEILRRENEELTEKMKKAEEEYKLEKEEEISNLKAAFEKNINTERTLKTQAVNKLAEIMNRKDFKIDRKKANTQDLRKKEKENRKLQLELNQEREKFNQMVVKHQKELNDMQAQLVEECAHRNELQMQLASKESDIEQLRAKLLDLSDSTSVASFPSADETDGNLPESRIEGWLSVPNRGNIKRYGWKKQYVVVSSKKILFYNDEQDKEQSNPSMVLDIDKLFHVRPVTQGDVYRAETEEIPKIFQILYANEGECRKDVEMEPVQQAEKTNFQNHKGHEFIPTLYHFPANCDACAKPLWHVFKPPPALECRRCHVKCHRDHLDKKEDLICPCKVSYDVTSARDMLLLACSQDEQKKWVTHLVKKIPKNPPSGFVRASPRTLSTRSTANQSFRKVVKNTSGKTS

Which results are given for N#Cc1n[nH]c2ccc([N+](=O)[O-])cc12 [DL0805, 5-Nitro-1H-indazole-3-carbonitrile, reference compound]?
IC50 ([1]; a: means of multiple experiments (N = 4), errors within 30% of the mean, b: single determinations, read-out: IC50 against ROCK I): 6.67 µM; inhibition at 20 µM ([1]; compound concentration 20 μM, single determinations): 72.3%; EC50 [2]: 9.44 µM; EC50 [3]: 28.8 µM; IC50 [4]: 6.7 µM
